Data from patent publication US10654833B2, “ASK1 isoindolin-1-one inhibitors and methods of use thereof” (Hepatikos Therapeutics, LLC, priority 2018, dated 2020).
pIC50: −log10 of the molar value.

These compounds were tested against recombinant human ASK1 protein (Homo sapiens (Human), UniProt Q99683) (assay: ASK1 kinase activity inhibition assay (radiometric 33P incorporation into MBP)). Details: Table 3; 20 μM MBP, 10 μM 33P-ATP.
Type: biochemical
Description: ASK1 Kinase Activity Inhibition Assay
Inhibition of ASK1 kinase activity was determined radiometrically using 33P substrate incorporation (Reaction Biology Corp., Malvern, Pa.). Briefly, recombinant human ASK1 protein, 20 μM substrate (myelin basic protein (MBP)), and compound (diluted from DMSO stock to give 1% final DMSO) were incubated in Base Reaction buffer (20 mM Hepes (pH 7.5), 10 mM MgCl2, 1 mM EGTA, 0.02% Brij35, 0.02 mg/mL BSA, 0.1 mM Na3VO4, 2 mM DTT, 1% DMSO) at room temperature for 20 minutes. The reaction was initiated by addition of 10 μM 33P-ATP (specific activity […]). The reaction was then allowed to proceed for 2 hours at room temperature. Upon reaction termination, the mixture was spotted on P81 exchange paper and kinase activity by incorporation of 33P into MBP substrate was detected by filter-binding method.

recombinant human ASK1 protein, sequence (Q99683 whole entry): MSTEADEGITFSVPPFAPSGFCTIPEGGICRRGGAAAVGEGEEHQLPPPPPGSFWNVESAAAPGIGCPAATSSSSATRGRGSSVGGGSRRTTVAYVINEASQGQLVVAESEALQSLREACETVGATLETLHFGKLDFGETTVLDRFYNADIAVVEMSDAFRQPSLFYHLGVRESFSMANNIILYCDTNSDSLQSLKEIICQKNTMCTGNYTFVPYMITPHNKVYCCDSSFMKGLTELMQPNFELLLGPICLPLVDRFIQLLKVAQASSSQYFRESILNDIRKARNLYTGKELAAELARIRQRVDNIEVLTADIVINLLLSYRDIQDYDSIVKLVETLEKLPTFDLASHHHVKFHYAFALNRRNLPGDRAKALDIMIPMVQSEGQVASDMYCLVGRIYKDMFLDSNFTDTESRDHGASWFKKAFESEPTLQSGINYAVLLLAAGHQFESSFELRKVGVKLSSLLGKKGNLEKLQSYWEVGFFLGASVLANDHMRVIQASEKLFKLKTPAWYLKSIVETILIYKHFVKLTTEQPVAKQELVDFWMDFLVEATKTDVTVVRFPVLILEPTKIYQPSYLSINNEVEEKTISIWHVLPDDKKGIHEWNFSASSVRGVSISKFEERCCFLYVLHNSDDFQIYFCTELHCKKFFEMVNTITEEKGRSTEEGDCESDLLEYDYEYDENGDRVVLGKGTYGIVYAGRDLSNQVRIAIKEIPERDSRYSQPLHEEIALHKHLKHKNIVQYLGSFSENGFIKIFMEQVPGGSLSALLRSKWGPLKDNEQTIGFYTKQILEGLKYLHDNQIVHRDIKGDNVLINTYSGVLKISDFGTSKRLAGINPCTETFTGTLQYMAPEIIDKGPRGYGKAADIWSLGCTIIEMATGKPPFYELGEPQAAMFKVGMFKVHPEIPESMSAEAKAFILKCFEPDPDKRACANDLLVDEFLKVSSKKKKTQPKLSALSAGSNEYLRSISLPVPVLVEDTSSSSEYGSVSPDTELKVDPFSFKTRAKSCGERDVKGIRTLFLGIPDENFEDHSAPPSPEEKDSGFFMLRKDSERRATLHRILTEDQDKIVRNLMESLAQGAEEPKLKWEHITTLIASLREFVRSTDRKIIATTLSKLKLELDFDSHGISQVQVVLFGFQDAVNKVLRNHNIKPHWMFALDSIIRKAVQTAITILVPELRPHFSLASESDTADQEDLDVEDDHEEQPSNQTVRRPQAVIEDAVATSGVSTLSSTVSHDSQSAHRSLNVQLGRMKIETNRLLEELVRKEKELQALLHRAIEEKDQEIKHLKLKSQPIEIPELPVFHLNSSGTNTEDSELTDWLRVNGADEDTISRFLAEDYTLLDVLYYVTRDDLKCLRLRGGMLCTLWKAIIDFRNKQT

| pIC50 | SMILES |
| --- | --- |
| 8.36 | CC(C)n1cnnc1-c1cccc(N2Cc3ccc(-c4ccc(CCC(=O)O)cc4)cc3C2=O)n1 [Compound 90, 3-(4-(2-(6-(4-Isopropyl-4H-1,2,4-triazol-3-yl)pyridin-2-yl)-3-oxoisoindolin-5-yl)phenyl)propanoic Acid] |
| 7.17 | Cc1cc(C(=O)O)c(C#N)c(-c2ccc3c(c2)C(=O)N(c2cccc(-c4nncn4C(C)C)n2)C3)n1 [Compound 118, 3-Cyano-2-(2-(6-(4-isopropyl-4H-1,2,4-triazol-3-yl)pyridin-2-yl)-3-oxoisoindolin-5-yl)-6-methylisonicotinic Acid] |
| 7.95 | CC(C)n1cnnc1-c1cccc(N2Cc3ccc(N4CCCC(C(=O)O)C4)cc3C2=O)n1 (centres unmarked) [Compound 28, 1-(2-(6-(4-Isopropyl-4H-1,2,4-triazol-3-yl)pyridin-2-yl)-3-oxoisoindolin-5-yl)piperidine-3-carboxylic Acid] |
| 8.37 | CC(C)n1cnnc1-c1cccc(N2Cc3ccc(-c4ccc(CC(=O)O)cc4)cc3C2=O)n1 [Compound 84, 2-(4-(2-(6-(4-Isopropy-4H-1,2,4-triazol-3-yl)pyridin-2-yl)-3-oxoisoindolin-5-yl)phenyl)acetic Acid] |
| 8.27 | CC(C)n1cnnc1-c1cccc(N2Cc3ccc(-c4ccc(C(=O)O)cc4)cc3C2=O)n1 [Compound 55, 4-(2-(6-(4-Isopropyl-4H-1,2,4-triazol-3-yl)pyridin-2-yl)-3-oxoisoindolin-5-yl)benzoic Acid] |
| 8.59 | CC(C)(C(=O)O)c1ccc(-c2ccc3c(c2)C(=O)N(c2cccc(-c4nncn4C4CC4)n2)C3)cc1 [Compound 53, 2-(4-(2-(6-(4-cyclopropyl-4H-1,2,4-triazol-3-yl)pyridin-2-yl)-3-oxoisoindolin-5-yl)phenyl)-2-methylpropanoic acid] |
| 8.17 | CCc1sc(C(=O)O)cc1-c1ccc2c(c1)C(=O)N(c1cccc(-c3nncn3C(C)C)n1)C2 [Compound 62, 5-Ethyl-4-(2-(6-(4-isopropyl-4H-1,2,4-triazol-3-yl)pyridin-2-yl)-3-oxoisoindolin-5-yl)thiophene-2-carboxylic Acid] |
| 8.30 | CC(C)n1cnnc1-c1cccc(N2Cc3ccc(-c4ccc(Cl)c(C(=O)O)c4)cc3C2=O)n1 [Compound 60, 2-Chloro-5-(2-(6-(4-isopropyl-4H-1,2,4-triazol-3-yl)pyridin-2-yl)-3-oxoisoindolin-5-yl)benzoic Acid] |
| 8.21 | CC(C)n1cnnc1-c1cccc(N2Cc3ccc(N4CCC(C(=O)O)CC4)cc3C2=O)n1 [Compound 128, 1-(2-(6-(4-isopropyl-4H-1,2,4-triazol-3-yl)pyridin-2-yl)-3-oxoisoindolin-5-yl)piperidine-4-carboxylic acid] |
| 8.44 | CC(C(=O)O)c1ccc(-c2ccc3c(c2)C(=O)N(c2cccc(-c4nncn4C(C)C)n2)C3)cc1 (centres unmarked) [Compound 85, 2-(4-(2-(6-(4-Isopropyl-4H-1,2,4-triazol-3-yl)pyridin-2-yl)-3-oxoisoindolin-5-yl)phenyl)propanoic Acid] |
| 8.29 | CC(C)n1cnnc1-c1cccc(N2Cc3ccc(-c4ccc5cc(C(=O)O)[nH]c5c4)cc3C2=O)n1 [Compound 61, 6-(2-(6-(4-Isopropyl-4H-1,2,4-triazol-3-yl)pyridin-2-yl)-3-oxoisoindolin-5-yl)-1H-indole-2-carboxylic Acid] |
| 7.90 | CC(C)(C(=O)O)c1cccc(-c2ccc3c(c2)C(=O)N(c2cccc(-c4nncn4C4CC4)n2)C3)c1 [Compound 103, 2-(3-(2-(6-(4-Cyclopropyl-4H-1,2,4-triazol-3-yl)pyridin-2-yl)-3-oxoisoindolin-5-yl)phenyl)-2-methylpropanoic Acid] |
| 8.25 | Cc1ccc(-c2ccc3c(c2)C(=O)N(c2cccc(-c4nncn4C(C)C)n2)C3)cc1C(=O)O [Compound 9, 5-(2-(6-(4-Isopropyl-4H-1,2,4-triazol-3-yl)pyridin-2-yl)-3-oxoisoindolin-5-yl)-2-methylbenzoic acid] |
| 8.28 | COc1c(C)cc(-c2ccc3c(c2)C(=O)N(c2cccc(-c4nncn4C(C)C)n2)C3)cc1C(=O)O [Compound 80, 5-(2-(6-(4-Isopropyl-4H-1,2,4-triazol-3-yl)pyridin-2-yl)-3-oxoisoindolin-5-yl)-2-methoxy-3-methylbenzoic Acid] |
| 8.34 | CC(C)n1cnnc1-c1cccc(N2Cc3ccc(-c4cc(F)c(C(=O)O)c(F)c4)cc3C2=O)n1 [Compound 78, 2,6-Difluoro-4-(2-(6-(4-isopropyl-4H-1,2,4-triazol-3-yl)pyridin-2-yl)-3-oxoisoindolin-5-yl) Benzoic Acid] |
| 8.46 | CC(C)n1cnnc1-c1cccc(N2Cc3ccc(-c4ccc5ncc(C(=O)O)n5c4)cc3C2=O)n1 [Compound 123, 6-(2-(6-(4-Isopropyl-4H-1,2,4-triazol-3-yl)pyridin-2-yl)-3-oxoisoindolin-5-yl)imidazo [1,2-a]pyridine-3-carboxylic Acid] |

| pIC50 | SMILES |
| --- | --- |
| 8.80 | CC(C)n1cnnc1-c1cccc(N2Cc3ccc(-c4nccc(C(=O)O)c4F)cc3C2=O)n1 [Compound 113, 3-Fluoro-2-(2-(6-(4-isopropyl-4H-1,2,4-triazol-3-yl) 103yridine-2-yl)-3-oxoisoindolin-5-yl) Isonicotinic Acid] |
| 8.31 | COC(=O)C(C)(C)c1ccc(-c2ccc3c(c2)C(=O)N(c2cccc(-c4nncn4C(C)C)n2)C3)cc1 [Compound 88, Methyl 2-(4-(2-(6-(4-isopropyl-4H-1,2,4-triazol-3-yl)pyridin-2-yl)-3-oxoisoindolin-5-yl)phenyl)-2-methylpropanoate] |
| 8.24 | CC(C)n1cnnc1-c1cccc(N2Cc3ccc(-c4ccc(C(=O)O)cc4F)cc3C2=O)n1 [Compound 57, 3-Fluoro-4-(2-(6-(4-isopropyl-4H-1,2,4-triazol-3-yl)pyridin-2-yl)-3-oxoisoindolin-5-yl)benzoic Acid] |
| 7.83 | COC(=O)c1ccc(-c2ccc3c(c2)C(=O)N(c2cccc(-c4nncn4C(C)C)n2)C3)cc1 [Compound 81, Methyl 4-(2-(6-(4-isopropyl-4H-1,2,4-triazol-3-yl)pyridin-2-yl)-3-oxoisoindolin-5-yl)benzoate] |
| 7.97 | COc1ccc(C(=O)O)cc1-c1ccc2c(c1)C(=O)N(c1cccc(-c3nncn3C(C)C)n1)C2 [Compound 8, 3-(2-(6-(4-Isopropyl-4H-1,2,4-triazol-3-yl)pyridin-2-yl)-3-oxoisoindolin-5-yl)-4-methoxybenzoic Acid] |
| 8.18 | CC(C)n1cnnc1-c1cccc(N2Cc3ccc(-c4ccc(C(=O)O)cc4O)cc3C2=O)n1 [Compound 69, 3-Hydroxy-4-(2-(6-(4-isopropyl-4H-1,2,4-triazol-3-yl)pyridin-2-yl)-3-oxoisoindolin-5-yl)benzoic Acid] |
| 7.91 | Cc1c(C(=O)O)cc(N)cc1-c1ccc2c(c1)C(=O)N(c1cccc(-c3nncn3C(C)C)n1)C2 [Compound 68, 5-Amino-3-(2-(6-(4-isopropyl-4H-1,2,4-triazol-3-yl)pyridin-2-yl)-3-oxoisoindolin-5-yl)-2-methylbenzoic Acid] |
| 7.46 | CC(C)n1cnnc1-c1cccc(N2Cc3ccc(-c4ccc(Cl)cc4C(=O)O)cc3C2=O)n1 [Compound 65, 5-Chloro-2-(2-(6-(4-isopropyl-4H-1,2,4-triazol-3-yl)pyridin-2-yl)-3-oxoisoindolin-5-yl)benzoic Acid] |
| 8.31 | CC(C)n1cnnc1-c1cccc(N2Cc3ccc(-c4ccc(OCC(=O)O)cc4)cc3C2=O)n1 [Compound 89, 2-(4-(2-(6-(4-Isopropyl-4H-1,2,4-triazol-3-yl)pyridin-2-yl)-3-oxoisoindolin-5-yl)phenoxy) acetic Acid] |
| 8.37 | O=C(O)c1ccc(-c2ccc3c(c2)C(=O)N(c2cccc(-c4nncn4C4CC4)n2)C3)cc1 [Compound 71, 4-(2-(6-(4-Cyclopropyl-4H-1,2,4-triazol-3-yl)pyridin-2-yl)-3-oxoisoindolin-5-yl)benzoic Acid] |
| 8.20 | COC(=O)c1cccc(-c2ccc3c(c2)C(=O)N(c2cccc(-c4nncn4C(C)C)n2)C3)c1 [Compound 99, Methyl 3-(2-(6-(4-isopropyl-4H-1,2,4-triazol-3-yl)pyridin-2-yl)-3-oxoisoindolin-5-yl)benzoate] |
| 8.37 | CC(C)n1cnnc1-c1cccc(N2Cc3ccc(-c4cccc(C(=O)O)c4F)cc3C2=O)n1 [Compound 2, 2-Fluoro-3-(2-(6-(4-isopropyl-4H-1,2,4-triazol-3-yl)pyridin-2-yl)-3-oxoisoindolin-5-yl) Benzoic Acid] |
| 8.68 | Cc1c(C(=O)O)ccnc1-c1ccc2c(c1)C(=O)N(c1cccc(-c3nncn3C(C)C)n1)C2 [Compound 114, 2-(2-(6-(4-Isopropyl-4H-1,2,4-triazol-3-yl)pyridin-2-yl)-3-oxoisoindolin-5-yl)-3-methylisonicotinic Acid] |
| 8.09 | CC(C)n1cnnc1-c1cccc(N2Cc3ccc(-c4ccc(-n5ncc(C(=O)O)c5N)cc4)cc3C2=O)n1 [Compound 120, 5-Amino-1-(4-(2-(6-(4-isopropyl-4H-1,2,4-triazol-3-yl)pyridin-2-yl)-3-oxoisoindolin-5-yl)phenyl)-1H-pyrazole-4-carboxylic Acid] |
| 8.55 | CC(C)n1cnnc1-c1cccc(N2Cc3ccc(-c4ccc(C(=O)O)c(S(C)(=O)=O)c4)cc3C2=O)n1 [Compound 77, 4-(2-(6-(4-Isopropyl-4H-1,2,4-triazol-3-yl)pyridin-2-yl)-3-oxoisoindolin-5-yl)-2-(methylsulfonyl)benzoic Acid] |
| 7.37 | CC(C)n1cnnc1-c1cccc(N2Cc3ccc(-c4ccccc4C(=O)O)cc3C2=O)n1 [Compound 56, 2-(2-(6-(4-Isopropyl-4H-1,2,4-triazol-3-yl)pyridin-2-yl)-3-oxoisoindolin-5-yl)benzoic Acid] |
